In the assay the test system is MV-4-11 cells. Description: Gene expression microarray analysis (Affymetrix PrimeView) and GSEA. It counts as cell-based, human. More on the design: RFU PODN (11730768_x_at) / Fold change /veh PODN (11730768_x_at) / RFU LINC00158 (11744669_a_at) / Fold change /veh LINC00158 (11744669_a_at) / RFU DUSP10 (11751237_a_at) / Fold change /veh DUSP10 (11751237_a_at) / RFU ID3 (11757404_x_at) / Fold change /veh ID3 (11757404_x_at) / RFU PLEKHG5 (11737974_s_at) / Fold change /veh PLEKHG5 (11737974_s_at) / RFU LRRC4B (11730491_at) / Fold change /veh LRRC4B (11730491_at) / RFU GIMAP4 (11747438_a_at) / Fold change /veh GIMAP4 (11747438_a_at) / RFU KRT8 (11758183_x_at) / Fold change /veh KRT8 (11758183_x_at) / RFU CNN1 (11734310_a_at) / Fold change /veh CNN1 (11734310_a_at) / RFU VPS37D (11726825_at) / Fold change /veh VPS37D (11726825_at) / RFU C10orf10 (11716522_x_at) / Fold change /veh C10orf10 (11716522_x_at) / RFU KIR2DL2 /// KIR2DL4 /// KIR2DL5A /// KIR2DL5B /// KIR2DS1 /// KIR2DS2 /// KIR2DS3 /// KIR2DS4 /// KIR3DL3 /// KIR3DL3 /// KIR3DS1 (11738374_at) / Fold change /veh KIR2DL2 /// KIR2DL4 /// KIR2DL5A /// KIR2DL5B /// KIR2DS1 /// KIR2DS2 /// KIR2DS3 /// KIR2DS4 /// KIR3DL3 /// KIR3DL3 /// KIR3DS1 (11738374_at) / RFU C1QL1 (11718748_at) / Fold change /veh C1QL1 (11718748_at) / RFU TMPRSS4 (11747572_a_at) / Fold change /veh TMPRSS4 (11747572_a_at) / RFU HAMP (11756126_x_at) / Fold change /veh HAMP (11756126_x_at) / RFU RNFT2 (11725882_a_at) / Fold change /veh RNFT2 (11725882_a_at) / RFU NR4A2 (11747474_a_at) / Fold change /veh NR4A2 (11747474_a_at) / RFU ABCC12 (11746883_a_at) / Fold change /veh ABCC12 (11746883_a_at) / RFU TMEM136 (11760407_x_at) / Fold change /veh TMEM136 (11760407_x_at) / RFU CLDN22 /// WWC2 (11732394_at) / Fold change /veh CLDN22 /// WWC2 (11732394_at) / RFU HLA-DPB1 (11760878_x_at) / Fold change /veh HLA-DPB1 (11760878_x_at) / RFU SPINT1 (11716480_a_at) / Fold change /veh SPINT1 (11716480_a_at) / RFU GAP43 (11754022_s_at) / Fold change /veh GAP43 (11754022_s_at) / RFU A4GNT (11735810_at) / Fold change /veh A4GNT (11735810_at) / RFU PRB3 (11715151_x_at) / Fold change /veh PRB3 (11715151_x_at) / RFU TUBB4B (11761932_at) / Fold change /veh TUBB4B (11761932_at) / RFU CAPN14 (11732068_a_at) / Fold change /veh CAPN14 (11732068_a_at) / RFU TMCC2 (11721928_a_at) / Fold change /veh TMCC2 (11721928_a_at) / RFU IRGQ (11745062_a_at) / Fold change /veh IRGQ (11745062_a_at) / RFU FAM174B (11720279_a_at) / Fold change /veh FAM174B (11720279_a_at) / RFU TMPRSS4 (11748680_a_at) / Fold change /veh TMPRSS4 (11748680_a_at) / RFU FAM212B (11763350_a_at) / Fold change /veh FAM212B (11763350_a_at) / RFU PLEKHG5 (11743358_a_at) / Fold change /veh PLEKHG5 (11743358_a_at) / RFU ZSCAN30 (11745921_a_at) / Fold change /veh ZSCAN30 (11745921_a_at) / RFU CMKLR1 (11741424_a_at) / Fold change /veh CMKLR1 (11741424_a_at) / RFU LOC101060620 /// MAPK8IP1 (11723275_at) / Fold change /veh LOC101060620 /// MAPK8IP1 (11723275_at) / RFU SPTSSB (11747773_x_at) / Fold change /veh SPTSSB (11747773_x_at) / RFU PRSS12 (11739890_at) / Fold change /veh PRSS12 (11739890_at) / RFU BIN1 (11741810_x_at) / Fold change /veh BIN1 (11741810_x_at) / RFU WNT11 (11732464_a_at) / Fold change /veh WNT11 (11732464_a_at) / RFU C10orf10 (11716521_a_at) / Fold change /veh C10orf10 (11716521_a_at) / RFU C5orf56 (11738089_at) / Fold change /veh C5orf56 (11738089_at) / RFU CYB561 (11721691_x_at) / Fold change /veh CYB561 (11721691_x_at) / RFU ANKRD19P (11752326_a_at) / Fold change /veh ANKRD19P (11752326_a_at) / RFU OR2T12 /// OR2T33 /// OR2T8 (11738714_s_at) / Fold change /veh OR2T12 /// OR2T33 /// OR2T8 (11738714_s_at) / RFU VCAN (11748164_a_at) / Fold change /veh VCAN (11748164_a_at) / RFU JSRP1 (11732532_at) / Fold change /veh JSRP1 (11732532_at) / RFU KRTAP10-11 (11738290_x_at) / Fold change /veh KRTAP10-11 (11738290_x_at) / RFU MYO3A (11730013_a_at) / Fold change /veh MYO3A (11730013_a_at) / RFU EBF3 (11725865_a_at) / Fold change /veh EBF3 (11725865_a_at) / RFU CAMK2N1 (11719241_x_at) / Fold change /veh CAMK2N1 (11719241_x_at) / RFU C5orf56 (11738088_a_at) / Fold change /veh C5orf56 (11738088_a_at) / RFU OLFML3 (11715873_a_at) / Fold change /veh OLFML3 (11715873_a_at) / RFU LOC100653217 /// NTM (11731650_a_at) / Fold change /veh LOC100653217 /// NTM (11731650_a_at) / RFU MAPK11 (11762145_a_at) / Fold change /veh MAPK11 (11762145_a_at) / RFU FIZ1 (11724087_x_at) / Fold change /veh FIZ1 (11724087_x_at) / RFU OASL (11726364_x_at) / Fold change /veh OASL (11726364_x_at) / RFU SOX15 (11748057_x_at) / Fold change /veh SOX15 (11748057_x_at) / RFU CD79A (11719716_a_at) / Fold change /veh CD79A (11719716_a_at) / RFU HIST1H1D (11736915_at) / Fold change /veh HIST1H1D (11736915_at) / RFU CASKIN2 (11723855_a_at) / Fold change /veh CASKIN2 (11723855_a_at) / RFU LOC730098 (11760151_x_at) / Fold change /veh LOC730098 (11760151_x_at) / RFU OR4N2 (11742367_at) / Fold change /veh OR4N2 (11742367_at) / RFU PRRT2 (11749266_a_at) / Fold change /veh PRRT2 (11749266_a_at) / RFU SNX32 (11753110_a_at) / Fold change /veh SNX32 (11753110_a_at) / RFU CDHR5 (11726645_a_at) / Fold change /veh CDHR5 (11726645_a_at) / RFU RCAN1 (11760418_a_at) / Fold change /veh RCAN1 (11760418_a_at) / RFU FAM167A (11723789_a_at) / Fold change /veh FAM167A (11723789_a_at) / RFU FAM26E (11764081_at) / Fold change /veh FAM26E (11764081_at) / RFU ISYNA1 (11749810_s_at) / Fold change /veh ISYNA1 (11749810_s_at) / RFU ACY1 (11761880_at) / Fold change /veh ACY1 (11761880_at) / RFU 11764098_at / Fold change /veh 11764098_at / RFU SAMD14 (11745864_x_at) / Fold change /veh SAMD14 (11745864_x_at) / RFU NPB (11741838_a_at) / Fold change /veh NPB (11741838_a_at) / RFU TMPRSS6 (11731388_a_at) / Fold change /veh TMPRSS6 (11731388_a_at) / RFU KRTAP10-2 (11738614_at) / Fold change /veh KRTAP10-2 (11738614_at) / RFU ARHGAP8 /// PRR5-ARHGAP8 (11727945_x_at) / Fold change /veh ARHGAP8 /// PRR5-ARHGAP8 (11727945_x_at) / RFU KRTAP5-7 /// NADSYN1 (11734609_at) / Fold change /veh KRTAP5-7 /// NADSYN1 (11734609_at) / RFU RASL12 (11751679_a_at) / Fold change /veh RASL12 (11751679_a_at) / RFU CDKN2B (11736163_a_at) / Fold change /veh CDKN2B (11736163_a_at) / RFU PRF1 (11729649_at) / Fold change /veh PRF1 (11729649_at) / RFU, ZNF638 /// ZNF638-IT1 / Fold change vs veh, ZNF638 /// ZNF638-IT1 / RFU, PANK3 / Fold change vs veh, PANK3 / RFU, SH3YL1 / Fold change vs veh, SH3YL1 / RFU, ZEB2 / Fold change vs veh, ZEB2 / RFU, NRIP1 / Fold change vs veh, NRIP1 / RFU, PTTG1IP / Fold change vs veh, PTTG1IP / RFU, CAPN2 / Fold change vs veh, CAPN2 / RFU, MED14 / Fold change vs veh, MED14 / RFU, SNORA58 / Fold change vs veh, SNORA58 / RFU, C1orf63 / Fold change vs veh, C1orf63 / RFU, LRRFIP1 / Fold change vs veh, LRRFIP1 / RFU, NDUFAF7 / Fold change vs veh, NDUFAF7 / RFU, SLC12A2 / Fold change vs veh, SLC12A2 / RFU, IBTK / Fold change vs veh, IBTK / RFU, ESF1 / Fold change vs veh, ESF1 / Fold change vs veh, TMEM50B / RFU, TAOK1 / Fold change vs veh, TAOK1 / RFU, ACBD3 / Fold change vs veh, ACBD3 / RFU, TMA16 / Fold change vs veh, TMA16 / RFU, RWDD3 / Fold change vs veh, RWDD3 / RFU, BCAT1 / Fold change vs veh, BCAT1 / RFU, EDEM3 / Fold change vs veh, EDEM3 / RFU, TMEM33 / Fold change vs veh, TMEM33 / RFU, WDR75 / Fold change vs veh, WDR75 / RFU, AHCTF1 / Fold change vs veh, AHCTF1 / RFU, TFRC / Fold change vs veh, TFRC / RFU, ZDHHC17 / Fold change vs veh, ZDHHC17 / RFU, NOM1 / Fold change vs veh, NOM1 / RFU, ARL8B / Fold change vs veh, ARL8B / RFU, ZBTB11 / Fold change vs veh, ZBTB11 / RFU, TAMM41 / Fold change vs veh, TAMM41 / RFU, KIAA1704 /// LOC100996395 / Fold change vs veh, KIAA1704 /// LOC100996395 / RFU, ING1 / Fold change vs veh, ING1 / RFU, TRMT61B / Fold change vs veh, TRMT61B / RFU, FUBP3 / Fold change vs veh, FUBP3 / RFU, TP53 / Fold change vs veh, TP53 / RFU, TNKS2 / Fold change vs veh, TNKS2 / RFU, ZFP14 / Fold change vs veh, ZFP14 / RFU, ACTR2 / Fold change vs veh, ACTR2 / RFU, PPP3R1 / Fold change vs veh, PPP3R1 / RFU, PIK3R1 / Fold change vs veh, PIK3R1 / RFU, HNRNPA1 / Fold change vs veh, HNRNPA1 / RFU, RNF170 / Fold change vs veh, RNF170 / RFU, ZNF28 / Fold change vs veh, ZNF28 / RFU, RNGTT / Fold change vs veh, RNGTT / RFU, OGT / Fold change vs veh, OGT / RFU, BRD1 / Fold change vs veh, BRD1 / RFU, MARS / Fold change vs veh, MARS / RFU, ZNF655 / Fold change vs veh, ZNF655 / RFU, FAHD1 / Fold change vs veh, FAHD1 / RFU, BDP1 / Fold change vs veh, BDP1 / RFU, LRRCC1 / Fold change vs veh, LRRCC1 / RFU, ARID1A / Fold change vs veh, ARID1A / RFU, ZNF146 / Fold change vs veh, ZNF146 / RFU, ZNF330 / Fold change vs veh, ZNF330 / RFU, GPN3 / Fold change vs veh, GPN3 / RFU, C9orf123 / Fold change vs veh, C9orf123 / RFU, N4BP2L2 / Fold change vs veh, N4BP2L2 / RFU, ARFIP1 / Fold change vs veh, ARFIP1 / RFU, FAM179B / Fold change vs veh, FAM179B / RFU, BCL10 / Fold change vs veh, BCL10 / RFU, UHRF1BP1L / Fold change vs veh, UHRF1BP1L / RFU, BET1 / Fold change vs veh, BET1 / RFU, CNOT2 / Fold change vs veh, CNOT2 / RFU, ZNF268 / Fold change vs veh, ZNF268 / Fold change vs veh, ZNF507 / RFU, DGCR2 / Fold change vs veh, DGCR2 / RFU, WDSUB1 / Fold change vs veh, WDSUB1 / Fold change vs veh, HSP90B1 /// MIR3652 / RFU, ADSS / Fold change vs veh, ADSS / RFU, GK / Fold change vs veh, GK / RFU, ZNF148 / Fold change vs veh, ZNF148 / RFU, TAF9 / Fold change vs veh, TAF9 / RFU, SLC1A5 / Fold change vs veh, SLC1A5 / RFU, SLMO2 / Fold change vs veh, SLMO2 / RFU, ABCC4 / Fold change vs veh, ABCC4 / RFU, LOC101060439 /// RAP1B / Fold change vs veh, LOC101060439 /// RAP1B / RFU, RFX7 / Fold change vs veh, RFX7 / RFU, GTPBP10 / Fold change vs veh, GTPBP10 / RFU, CNEP1R1 / Fold change vs veh, CNEP1R1 / RFU, BIVM-ERCC5 /// ERCC5 / Fold change vs veh, BIVM-ERCC5 /// ERCC5 / RFU, ILF3 / Fold change vs veh, ILF3 / RFU 11762660_at / Fold change /veh 11762660_at / RFU VCAN (11757783_s_at) / Fold change /veh VCAN (11757783_s_at) / RFU DDX43 (11728927_at) / Fold change /veh DDX43 (11728927_at) / RFU KRT8 (11758188_x_at) / Fold change /veh KRT8 (11758188_x_at) / RFU NKD1 (11759106_at) / Fold change /veh NKD1 (11759106_at) / RFU SRD5A1 (11742802_a_at) / Fold change /veh SRD5A1 (11742802_a_at) / RFU TPSAB1 /// TPSB2 (11721975_s_at) / Fold change /veh TPSAB1 /// TPSB2 (11721975_s_at) / RFU GSTM3 (11746129_a_at) / Fold change /veh GSTM3 (11746129_a_at) / RFU IL23R (11737362_x_at) / Fold change /veh IL23R (11737362_x_at) / RFU TMEM51 (11727254_a_at) / Fold change /veh TMEM51 (11727254_a_at) / RFU PIWIL2 (11732686_x_at) / Fold change /veh PIWIL2 (11732686_x_at) / RFU ORM1 (11744905_x_at) / Fold change /veh ORM1 (11744905_x_at) / RFU CCDC152 (11743942_at) / Fold change /veh CCDC152 (11743942_at) / RFU ECM1 (11717891_a_at) / Fold change /veh ECM1 (11717891_a_at) / RFU IL23R (11748794_a_at) / Fold change /veh IL23R (11748794_a_at) / RFU TNFAIP8L3 (11732012_x_at) / Fold change /veh TNFAIP8L3 (11732012_x_at) / RFU MBOAT4 (11741988_at) / Fold change /veh MBOAT4 (11741988_at) / RFU 11764193_at / Fold change /veh 11764193_at / RFU TMEM53 (11763286_at) / Fold change /veh TMEM53 (11763286_at) / RFU MAGEB2 (11727129_at) / Fold change /veh MAGEB2 (11727129_at) / RFU TMEM200A (11744735_a_at) / Fold change /veh TMEM200A (11744735_a_at) / RFU CCDC152 (11751479_a_at) / Fold change /veh CCDC152 (11751479_a_at) / RFU FAM211A (11726209_a_at) / Fold change /veh FAM211A (11726209_a_at) / RFU RGS16 (11746705_a_at) / Fold change /veh RGS16 (11746705_a_at) / RFU VCAN (11755009_s_at) / Fold change /veh VCAN (11755009_s_at) / RFU RHOB (11743442_s_at) / Fold change /veh RHOB (11743442_s_at) / RFU RGS16 (11720943_a_at) / Fold change /veh RGS16 (11720943_a_at) / RFU RGS16 (11720944_at) / Fold change /veh RGS16 (11720944_at) / RFU, VPS4B / Fold change vs veh, VPS4B / RFU, CREB1 / Fold change vs veh, CREB1 / RFU, DNAJC13 / Fold change vs veh, DNAJC13 / RFU, GNAQ / Fold change vs veh, GNAQ / RFU, CDK5R1 / Fold change vs veh, CDK5R1 / RFU, ZRANB3 / Fold change vs veh, ZRANB3 / RFU, CUL4A / Fold change vs veh, CUL4A / RFU, CCNY / Fold change vs veh, CCNY / RFU, UFL1 / Fold change vs veh, UFL1 / RFU, COG3 / Fold change vs veh, COG3 / RFU, DIAPH2 / Fold change vs veh, DIAPH2 / RFU, SKA2 / Fold change vs veh, SKA2 / RFU, AFF3 / Fold change vs veh, AFF3 / RFU, LMF1 / Fold change vs veh, LMF1 / RFU, IPO11 / Fold change vs veh, IPO11 / RFU, DFFB / Fold change vs veh, DFFB / RFU, FOXP1 / Fold change vs veh, FOXP1 / RFU, CARD8 / Fold change vs veh, CARD8 / RFU, STRN3 / Fold change vs veh, STRN3 / RFU, ADK / Fold change vs veh, ADK / RFU, RASSF2 / Fold change vs veh, RASSF2 / RFU, WIPF1 / Fold change vs veh, WIPF1 / RFU, LARP1B / Fold change vs veh, LARP1B / RFU, RASA1 / Fold change vs veh, RASA1 / RFU, RB1 / Fold change vs veh, RB1 / RFU, PPFIA1 / Fold change vs veh, PPFIA1 / RFU, MAT2A / Fold change vs veh, MAT2A / RFU, CCT5 / Fold change vs veh, CCT5 / RFU, WDR92 / Fold change vs veh, WDR92 / RFU, CUX1 / Fold change vs veh, CUX1 / RFU, TTC7A / Fold change vs veh, TTC7A / RFU, TMEM135 / Fold change vs veh, TMEM135 / RFU, DEPTOR / Fold change vs veh, DEPTOR / RFU, CPM / Fold change vs veh, CPM / RFU, DNAJB6 / Fold change vs veh, DNAJB6 / RFU, CACNA2D3 / Fold change vs veh, CACNA2D3 / RFU, DTX4 / Fold change vs veh, DTX4 / RFU, TFCP2 / Fold change vs veh, TFCP2 / RFU, GMCL1 /// GMCL1P1 / Fold change vs veh, GMCL1 /// GMCL1P1 / RFU, AEBP2 / Fold change vs veh, AEBP2 / RFU, SNHG1 /// SNORD22 /// SNORD25 /// SNORD26 /// SNORD27 /// SNORD28 /// SNORD29 /// SNORD31 / Fold change vs veh, SNHG1 /// SNORD22 /// SNORD25 /// SNORD26 /// SNORD27 /// SNORD28 /// SNORD29 /// SNORD31 / Fold change (Aza/veh), C12orf56 (ProbeSet 11735607_a_at) / Fold change (ACY-1035/veh), C12orf56 (ProbeSet 11735607_a_at) / Fold change (Aza/veh), FGFR1OP (ProbeSet 11751329_s_at) / Fold change (ACY-1035/veh), FGFR1OP (ProbeSet 11751329_s_at) / Fold change (Aza/veh), VPS36 (ProbeSet 11739960_a_at) / Fold change (ACY-1035/veh), VPS36 (ProbeSet 11739960_a_at) / RFU SYPL1 (11715823_x_at) / Fold change /veh SYPL1 (11715823_x_at) / RFU IGFBP7 (11715501_s_at) / Fold change /veh IGFBP7 (11715501_s_at) / RFU REEP3 (11722064_at) / Fold change /veh REEP3 (11722064_at) / RFU IGLL1 (11728026_x_at) / Fold change /veh IGLL1 (11728026_x_at): dose or concentration left out as unconfirmed. The following applies: ProbeSet 11719817_x_at; LIST B.

One compound from paper PMC5218480 (PLoS ONE, 2017) can be followed below.

On to `Nc1ncn([C@@H]2O[C@H](CO)[C@@H](O)[C@H]2O)c(=O)n1` [azacitidine], for which the “RFU, BET1” value was 81.04 RFU.
